Assay results from PMC8922279, “Identification of β-Lactams Active against Mycobacterium tuberculosis by a Consortium of Pharmaceutical Companies and Academic Institutions” (ACS Infectious Diseases, 2022).

How the values were obtained:
Mtb H37Rv [1] = experiment: MIC90 against nonreplicating (NR, 4-stress) Mtb H37Rv, with or without clavulanate; format: cell-based, Mycobacterium tuberculosis; conditions: 4-stress nonreplicating, Table S4; for Mtb H37Rv NR + CLAV (MIC90): clavulanate 4 μg/mL; for Mtb H37Rv NR (MIC90): no clavulanate
Mtb H37Rv [2] = experiment: MIC90 against replicating (R) Mtb H37Rv, with or without clavulanate; format: cell-based, Mycobacterium tuberculosis; conditions: Table S4; for Mtb H37Rv R + CLAV (MIC90): clavulanate 4 μg/mL; for Mtb H37Rv R (MIC90): no clavulanate
C. albicans = experiment: Microbial spectrum, C. albicans; format: cell-based, Candida albicans; conditions: no clavulanate; Table S4
P. aeruginosa = experiment: Microbial spectrum, P. aeruginosa; format: cell-based, Pseudomonas aeruginosa; conditions: clavulanate 4 μg/mL; Table S4
S. aureus = experiment: Microbial spectrum, S. aureus; format: cell-based, Staphylococcus aureus; conditions: clavulanate 4 μg/mL; Table S4
E. coli = experiment: Microbial spectrum, E. coli; format: cell-based, Escherichia coli; conditions: clavulanate 4 μg/mL; Table S4

SMILES | Mtb H37Rv NR + CLAV (MIC90) (Mtb H37Rv [1]) | Mtb H37Rv NR (MIC90) (Mtb H37Rv [1]) | Mtb H37Rv R + CLAV (MIC90) (Mtb H37Rv [2]) | Mtb H37Rv R (MIC90) (Mtb H37Rv [2]) | C.albicans R (MIC90) (C. albicans) | P.aeruginosa R + CLAV (MIC90) (P. aeruginosa) | S.aureus R + CLAV (MIC90) (S. aureus) | E.coli R + CLAV (MIC90) (E. coli)
Cc1nnc(SCC2=C(C(=O)O)N3C(=O)[C@@H](NC(=O)CSc4cc(Cl)ccc4Cl)[C@H]3SC2)s1 [TBBL-0000415] | > 100 µM | > 100 µM | 1.6 µM | 22.9 µM | > 100 µM | > 100 µM | < 0.1 µM | 22.7 µM
CC(=O)OCC1=C(C(=O)O)N2C(=O)[C@@H](NC(=O)CSc3nc4ccccc4s3)[C@H]2SC1 [TBBL-0000010] | > 100 µM | > 100 µM | 3.9 µM | 62 µM | > 100 µM | > 100 µM | 0.2 µM | > 100 µM
Cn1nnnc1SCC1=C(C(=O)O)N2C(=O)[C@@H](NC(=O)Cc3ccc(C4=NCCN4)cc3)[C@H]2SC1 [TBBL-0000323] | > 100 µM | > 100 µM | 0.8 µM | 31.9 µM | > 100 µM | > 100 µM | 1.8 µM | 14 µM
C=CCn1nnnc1SCC1=C(C(=O)O)N2C(=O)[C@@H](NC(=O)Cc3ccc(C4=NCCN4)cc3)[C@H]2SC1 [TBBL-0000312] | > 100 µM | > 100 µM | 0.8 µM | 22.1 µM | > 100 µM | > 100 µM | 1.1 µM | > 100 µM
CC(O)Cn1nnnc1SCC1=C(C(=O)O)N2C(=O)[C@@H](NC(=O)Cc3csc(=O)s3)[C@H]2SC1 (some centres unmarked) [TBBL-0000325] | > 100 µM | > 100 µM | 1.4 µM | 53.2 µM | > 100 µM | > 100 µM | 0.6 µM | 3.8 µM
CCn1nnnc1SCC1=C(C(=O)O)N2C(=O)[C@@H](NC(=O)Cc3ccc(C4=NCCCN4)cc3)[C@H]2SC1 [TBBL-0000318] | > 100 µM | > 100 µM | 0.8 µM | 24.5 µM | > 100 µM | > 100 µM | 2 µM | 60.5 µM
CCCn1nnnc1SCC1=C(C(=O)O)N2C(=O)[C@@H](NC(=O)Cc3ccc(C4=NCCN4)cc3)[C@H]2SC1 [TBBL-0000311] | > 100 µM | > 100 µM | 0.8 µM | 14.1 µM | > 100 µM | > 100 µM | 0.9 µM | > 100 µM
Nc1nnc(SCC2=C(C(=O)O)N3C(=O)[C@@H](NC(=O)CSc4cc(Cl)ccc4Cl)[C@H]3SC2)s1 [TBBL-0000467] | > 100 µM | > 100 µM | 1.5 µM | 52.2 µM | > 100 µM | > 100 µM | < 0.1 µM | > 100 µM
CCc1cc[n+](CC2=C(C(=O)[O-])N3C(=O)[C@@H](NC(=O)Cc4cccs4)[C@H]3SC2)cc1 [TBBL-0000418] | > 100 µM | > 100 µM | 1.4 µM | 100 µM | > 100 µM | > 100 µM | 0.5 µM | 7 µM
N=C(N)SCc1ccccc1SC1=C(C(=O)O)N2C(=O)[C@@H](NC(=O)C(N)c3ccccc3)[C@H]2CC1 (some centres unmarked) [TBBL-0000435] | > 100 µM | > 100 µM | 1.1 µM | 90.2 µM | > 100 µM | > 100 µM | 0.8 µM | > 100 µM
